Columns and labels:
[1] = target: T1, Phosphatidylinositol 4,5-bisphosphate 3-kinase catalytic subunit delta isoform (Homo sapiens, UniProt O00329); assay: Inhibition of PI3Kdelta in human Ramos cells assessed as reduction in anti-IgM-antibody-induced phosphorylation of AKT at Ser473 residue preincubated for 20 mins followed by anti-IgM antibody stimulation and measured after 30 mins by alphascreen assay; assay type: cell-based
T1 sequence (O00329 whole entry): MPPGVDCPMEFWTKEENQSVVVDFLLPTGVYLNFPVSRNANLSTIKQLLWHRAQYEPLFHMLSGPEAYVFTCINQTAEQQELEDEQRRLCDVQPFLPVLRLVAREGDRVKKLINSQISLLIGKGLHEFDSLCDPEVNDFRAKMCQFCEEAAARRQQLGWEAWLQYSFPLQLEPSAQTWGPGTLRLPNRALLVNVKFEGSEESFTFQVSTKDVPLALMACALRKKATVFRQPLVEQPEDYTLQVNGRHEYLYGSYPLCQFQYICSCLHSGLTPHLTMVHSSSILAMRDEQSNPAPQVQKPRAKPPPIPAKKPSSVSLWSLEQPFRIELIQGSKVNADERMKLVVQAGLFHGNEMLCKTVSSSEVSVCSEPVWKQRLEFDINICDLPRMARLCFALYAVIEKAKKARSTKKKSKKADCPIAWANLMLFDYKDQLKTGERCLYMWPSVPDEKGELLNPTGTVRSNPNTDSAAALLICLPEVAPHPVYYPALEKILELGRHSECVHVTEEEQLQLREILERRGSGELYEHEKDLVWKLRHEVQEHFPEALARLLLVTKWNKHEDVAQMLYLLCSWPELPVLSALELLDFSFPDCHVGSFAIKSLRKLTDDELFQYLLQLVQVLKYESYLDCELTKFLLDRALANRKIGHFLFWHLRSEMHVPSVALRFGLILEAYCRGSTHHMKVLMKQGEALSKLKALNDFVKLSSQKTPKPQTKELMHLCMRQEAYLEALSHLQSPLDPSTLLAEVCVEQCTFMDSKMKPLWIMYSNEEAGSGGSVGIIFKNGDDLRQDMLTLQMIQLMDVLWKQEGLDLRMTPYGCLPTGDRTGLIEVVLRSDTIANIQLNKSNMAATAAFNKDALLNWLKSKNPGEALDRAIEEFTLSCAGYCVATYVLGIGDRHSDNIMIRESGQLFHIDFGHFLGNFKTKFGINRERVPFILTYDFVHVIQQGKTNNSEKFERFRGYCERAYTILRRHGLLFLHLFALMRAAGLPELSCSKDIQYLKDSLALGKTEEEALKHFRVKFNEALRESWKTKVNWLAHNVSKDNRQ

Homo sapiens = species on record: Homo sapiens; assay: Selectivity ratio of IC50 for N-terminal His6-tagged recombinant full length human p110alpha/untagged recombinant full length human p85alpha expressed in baculovirus infected Sf21 insect cells to IC50 for N-terminal His6-tagged recombinant full length human p110delta/untagged recombinant full length human p85alpha expressed in baculovirus infected Sf21 insect cells
[2] = Inhibition of adenosine transporter in human HeLa cells assessed as reduction in [3H]adenosine uptake preincubated for 30 mins followed by [3H]adenosine addition and measured after 60 mins; assay type: ADME, cell-based
[3] = target: PI3-kinase p110-alpha/p85-alpha (Homo sapiens, UniProt P42336); assay: Inhibition of N-terminal His6-tagged recombinant full length human p110alpha/untagged recombinant full length human p85alpha expressed in baculovirus infected Sf21 insect cells using PIP2 as substrate preincubated for 15 mins followed by substrate addition and measured after 1 hr by HTRF assay
Chain of PI3-kinase p110-alpha/p85-alpha (P27986 whole entry): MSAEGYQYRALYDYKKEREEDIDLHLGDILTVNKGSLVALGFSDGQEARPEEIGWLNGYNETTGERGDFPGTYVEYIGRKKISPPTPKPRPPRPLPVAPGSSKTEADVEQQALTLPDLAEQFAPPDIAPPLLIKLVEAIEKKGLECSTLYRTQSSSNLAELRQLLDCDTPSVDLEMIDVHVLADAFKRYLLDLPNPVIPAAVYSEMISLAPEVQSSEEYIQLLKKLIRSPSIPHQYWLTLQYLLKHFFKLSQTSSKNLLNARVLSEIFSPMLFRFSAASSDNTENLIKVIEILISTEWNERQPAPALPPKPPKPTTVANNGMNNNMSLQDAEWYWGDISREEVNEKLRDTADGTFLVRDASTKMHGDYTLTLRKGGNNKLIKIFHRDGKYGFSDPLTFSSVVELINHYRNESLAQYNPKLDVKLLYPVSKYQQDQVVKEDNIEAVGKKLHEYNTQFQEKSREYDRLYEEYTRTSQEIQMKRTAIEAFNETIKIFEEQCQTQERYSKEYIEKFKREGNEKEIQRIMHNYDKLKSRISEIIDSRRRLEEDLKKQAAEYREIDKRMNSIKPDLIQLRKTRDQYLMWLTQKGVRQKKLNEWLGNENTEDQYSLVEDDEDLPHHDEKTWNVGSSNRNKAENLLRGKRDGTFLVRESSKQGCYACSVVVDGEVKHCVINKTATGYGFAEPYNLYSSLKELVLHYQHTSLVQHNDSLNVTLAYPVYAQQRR
Chain of PI3-kinase p110-alpha/p85-alpha (P42336 whole entry): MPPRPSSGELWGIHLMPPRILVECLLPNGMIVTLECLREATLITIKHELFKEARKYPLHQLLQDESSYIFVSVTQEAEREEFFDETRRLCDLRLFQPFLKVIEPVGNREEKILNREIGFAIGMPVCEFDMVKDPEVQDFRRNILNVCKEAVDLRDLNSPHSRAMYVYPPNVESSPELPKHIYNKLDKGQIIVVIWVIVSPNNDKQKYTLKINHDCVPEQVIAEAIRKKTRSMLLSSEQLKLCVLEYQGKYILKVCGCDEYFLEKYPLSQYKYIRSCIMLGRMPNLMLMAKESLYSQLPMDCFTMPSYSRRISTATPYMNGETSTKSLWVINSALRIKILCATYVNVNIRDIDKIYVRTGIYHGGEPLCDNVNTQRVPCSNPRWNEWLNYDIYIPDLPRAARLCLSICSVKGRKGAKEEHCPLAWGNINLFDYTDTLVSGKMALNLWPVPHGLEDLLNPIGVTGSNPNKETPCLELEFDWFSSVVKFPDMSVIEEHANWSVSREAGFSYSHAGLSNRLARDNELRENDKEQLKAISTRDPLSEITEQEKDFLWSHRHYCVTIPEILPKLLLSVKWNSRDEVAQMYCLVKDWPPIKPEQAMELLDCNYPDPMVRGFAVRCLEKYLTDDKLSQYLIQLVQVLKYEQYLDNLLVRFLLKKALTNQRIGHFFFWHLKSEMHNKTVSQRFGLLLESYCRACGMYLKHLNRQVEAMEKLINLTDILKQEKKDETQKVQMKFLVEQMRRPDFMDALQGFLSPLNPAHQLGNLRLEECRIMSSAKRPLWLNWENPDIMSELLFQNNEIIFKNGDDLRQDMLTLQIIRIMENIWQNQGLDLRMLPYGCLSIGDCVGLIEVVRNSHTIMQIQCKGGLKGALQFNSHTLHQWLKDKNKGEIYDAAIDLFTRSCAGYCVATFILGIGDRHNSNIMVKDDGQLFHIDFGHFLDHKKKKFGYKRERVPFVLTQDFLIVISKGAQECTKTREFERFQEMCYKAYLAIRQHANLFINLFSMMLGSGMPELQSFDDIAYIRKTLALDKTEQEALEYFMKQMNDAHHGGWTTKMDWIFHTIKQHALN

[4] = Plasma clearance in Beagle dog at 0.05 mg/kg; assay type: ADME, organism-based, Canis lupus familiaris
[5] = Lipophilicity, log D of the compound; assay type: physicochemical; details: octanol/water
[6] = Intrinsic clearance in Wistar Han rat at 0.05 mg/kg; assay type: ADME, organism-based; details: in vivo
[7] = Protein binding in Beagle dog plasma; assay type: ADME, cell-free, Canis lupus familiaris; details: read-out: PPB (converted)
[8] = Unbound volume of distribution in Beagle dog; assay type: ADME, Canis lupus familiaris; details: in vivo
[9] = Protein binding in Wistar Han rat plasma; assay type: ADME, cell-free; details: read-out: PPB (converted)
[10] = Volume of distribution in Beagle dog; assay type: ADME, Canis lupus familiaris; details: in vivo
[11] = Unbound volume of distribution in Wistar Han rat; assay type: ADME; details: in vivo
[12] = Plasma clearance in Wistar Han rat at 0.05 mg/kg; assay type: ADME, organism-based
[13] = Intrinsic clearance in Beagle dog at 0.05 mg/kg; assay type: ADME, organism-based, Canis lupus familiaris; details: in vivo
[14] = Volume of distribution in Wistar Han rat; assay type: ADME; details: in vivo
[15] = Half-life in Beagle dog; assay type: ADME, Canis lupus familiaris; details: in vivo
[16] = Half-life in Wistar Han rat; assay type: ADME; details: in vivo
[17] = target: PI3-kinase p110-delta/p85-alpha (Homo sapiens, UniProt O00329); assay: Inhibition of N-terminal His6-tagged recombinant full length human p110delta/untagged recombinant full length human p85alpha expressed in baculovirus infected Sf21 insect cells using PIP2 as substrate preincubated for 15 mins followed by substrate addition and measured after 1 hr by HTRF assay
Chain of PI3-kinase p110-delta/p85-alpha (P27986 whole entry, one chain of several): as the sequence (P27986 whole entry) above

[18] = Plasma clearance in Wistar Han rat at 0.5 mg/kg, iv or 1 mg/kg, po; assay type: ADME, organism-based
[19] = Oral bioavailability in Wistar Han rat; assay type: ADME, organism-based; details: in vivo
[20] = Intrinsic clearance in Wistar Han rat at 0.5 mg/kg, iv or 1 mg/kg, po; assay type: ADME, organism-based; details: in vivo

Compound	IC50 [1] [nM]	IC50 [2] [µM]	IC50 [3] [nM]	IC50 [17] [nM]	further results
CCC(=O)N1CC(Nc2ncnc3c2nc(-c2cnn(CC)c2C)n3C)C1	2210	> 10	904		Ratio IC50 (Homo sapiens): 16
CC[C@H](Nc1ncnc2c1nc(-c1cnn(CC)c1C)n2C)C(=O)N1C[C@@H](C)O[C@@H](C)C1		3.13	262		clearance [4]: 7.9 mL/min/kg; logD [5]: 1.7; CL [6]: 290 mL/min/kg; fraction unbound [7]: 0.42; Vdu [8]: 2 L/kg; fraction unbound [9]: 0.42; Vd [10]: 0.9 L/kg; Vdu [11]: 3 L/kg; clearance [12]: 50 mL/min/kg; CL [13]: 25 mL/min/kg; Vd [14]: 1.1 L/kg; half-life [15]: 72 min; half-life [16]: 18 min
CC[C@H](Nc1ncnc2c1nc(-c1cnn(CC)c1C)n2C)C(=O)N(C)C	1470	> 10	1070	34	
CCn1ncc(-c2nc3c(O[C@H]4CCN(C(=O)C5CC5)C4)ncnc3n2C)c1C	190	7.48	169	5.3	clearance [4]: 4.1 mL/min/kg; logD [5]: 1.2; fraction unbound [7]: 0.59; clearance [18]: 23 mL/min/kg; Vdu [8]: 2 L/kg; fraction unbound [9]: 0.33; Vd [10]: 0.9 L/kg; Vdu [11]: 2 L/kg; bioavailability [19]: 52%; CL [13]: 8 mL/min/kg; Vd [14]: 0.8 L/kg; half-life [15]: 162 min; half-life [16]: 24 min; CL [20]: 98 mL/min/kg
CCn1ncc(-c2nc3c(NC4CN(C(=O)C5CCOCC5)C4)ncnc3n2C)c1C	2770	> 10	453		Ratio IC50 (Homo sapiens): 28
CCn1ncc(-c2nc3c(NC4CCN(CC(C)C)C4=O)ncnc3n2C)c1C (racemic)	8330	7.15	1780	1350	

Further lines, with some results ahead:

IC50 [1] [nM]	IC50 [2] [µM]	IC50 [3] [nM]	IC50 [17] [nM]	Compound	further results
	> 10	> 10000	1080	CCn1ncc(-c2nc3c(N[C@H](C)C(=O)N4CCOCC4)ncnc3n2C)c1C	
	> 10	1190	800	CCC(=O)N1CCC(Nc2ncnc3c2nc(-c2cnn(CC)c2C)n3C)CC1	
970	4.5	2950	68	CCn1ncc(-c2nc3c(Oc4csc(C(=O)N5CCOCC5)c4)ncnc3n2C)c1C	
1290	2.56	1310		CCCN1CC[C@H](Nc2ncnc3c2nc(-c2cnn(CC)c2C)n3C)C1	

Source: ChEMBL document CHEMBL4346703, “Structure Overhaul Affords a Potent Purine PI3Kδ Inhibitor with Improved Tolerability” (J Med Chem, 2019)
